Values of other authors in patent publication US20240170108A1, “METHOD AND SYSTEM FOR GENE EXPRESSION PREDICTION-BASED SCREENING OF DRUG-LIKE MOLECULES” (Tata Consultancy Services Limited, priority 2022, published 2024).

System: VCAP cell line
Conditions: 10 μM concentration dose, 6 hrs of exposure

SMILES: O=c1cc(-c2ccc(O)cc2)oc2cc(O[C@@H]3O[C@H](CO)[C@@H](O)[C@H](O)[C@H]3O)cc(O)c12 [Cosmosiin]
- Characteristic Direction, APP (Gene ID 351) (gene APP): −0.0047
- Characteristic Direction, ARHGEF12 (Gene ID 23365) (gene ARHGEF12): −0.0376
- Characteristic Direction, ASAH1 (Gene ID 427) (gene ASAH1): −0.0172
- Characteristic Direction, ATF1 (Gene ID 466) (gene ATF1): −0.0167
- Characteristic Direction, BRCA1 (Gene ID 672) (gene BRCA1): −0.0305
- Characteristic Direction, CSNK1A1 (Gene ID 1452) (gene CSNK1A1): −0.0011
- Characteristic Direction, EED (Gene ID 8726) (gene EED): −0.0170
- Characteristic Direction, EGF (Gene ID 1950) (gene EGF): 0.0114
- Characteristic Direction, ETV1 (Gene ID 2115) (gene ETV1): −0.0108
- Characteristic Direction, FOXO3 (Gene ID 2309) (gene FOXO3): −0.0187
- Characteristic Direction, HLA-DMA (Gene ID 3108) (gene HLA-DMA): −0.0178
- Characteristic Direction, IL1B (Gene ID 3553) (gene IL1B): 0.0082
- Characteristic Direction, NFATC4 (Gene ID 4776) (gene NFATC4): −0.0087
- Characteristic Direction, NOS3 (Gene ID 4846) (gene NOS3): 0.0363
- Characteristic Direction, PSMD4 (Gene ID 5710) (gene PSMD4): −0.0161
- Characteristic Direction, PSME1 (Gene ID 5720) (gene PSME1): −0.0142
- Characteristic Direction, RALA (Gene ID 5898) (gene RALA): 0.0206
- Characteristic Direction, RHEB (Gene ID 6009) (gene RHEB): 0.0037
- Characteristic Direction, RHOA (Gene ID 387) (gene RHOA): −0.0166
- Characteristic Direction, SERPINE1 (Gene ID 5054) (gene SERPINE1): −0.0407
- Characteristic Direction, SOX2 (Gene ID 6657) (gene SOX2): 0.0276
- Characteristic Direction, TBP (Gene ID 6908) (gene TBP): −0.0084
- Characteristic Direction, TERT (Gene ID 7015) (gene TERT): 0.0054
